The NIST ThermoML archive (doi:10.1021/je100832h)
Numbers after ± are expanded uncertainties.

Columns and labels:
[1] = xn = mol fraction of the nth substance listed; conditions: 101.32 kPa, Liquid, Vibrating tube method
[2] = excess molar enthalpy (molar enthalpy of mixing); xn = mol fraction of the nth substance listed; conditions: 101 kPa, Liquid, Calvet calorimetry

CCCCCCCCCC [decane] + CCOC(C)=O
Conditions | excess molar enthalpy [kcal/mol] | mass density [kg/m3]
[1], 291.15 K, x2 = 0 | – | 731.22 ± 0.57
[1], 291.15 K, x2 = 0.0174 | – | 732.37 ± 0.64
[1], 291.15 K, x2 = 0.0789 | – | 736.87 ± 0.65
[1], 291.15 K, x2 = 0.1457 | – | 742.14 ± 0.67
[1], 291.15 K, x2 = 0.2494 | – | 751.47 ± 0.7
[1], 291.15 K, x2 = 0.3508 | – | 762.27 ± 0.75
[1], 291.15 K, x2 = 0.4382 | – | 773.02 ± 0.8
[1], 291.15 K, x2 = 0.5149 | – | 783.83 ± 0.85
[1], 291.15 K, x2 = 0.5781 | – | 793.79 ± 0.91
[1], 291.15 K, x2 = 0.6446 | – | 805.51 ± 0.98
[1], 291.15 K, x2 = 0.7051 | – | 817.52 ± 1.1
[1], 291.15 K, x2 = 0.7648 | – | 830.7 ± 1.1
[1], 291.15 K, x2 = 0.8069 | – | 841.06 ± 1.2
[1], 291.15 K, x2 = 0.8553 | – | 854.05 ± 1.3
[1], 291.15 K, x2 = 0.8914 | – | 864.68 ± 1.4
[1], 291.15 K, x2 = 0.9318 | – | 877.69 ± 1.5
[1], 291.15 K, x2 = 0.9794 | – | 894.7 ± 1.6
[1], 298.15 K, x2 = 0 | – | 726.2 ± 0.56
[1], 298.15 K, x2 = 0.0319 | – | 728.3 ± 0.64
[1], 298.15 K, x2 = 0.1165 | – | 734.6 ± 0.65
[1], 298.15 K, x2 = 0.2048 | – | 741.9 ± 0.67
[1], 298.15 K, x2 = 0.2835 | – | 749.3 ± 0.71
[1], 298.15 K, x2 = 0.3475 | – | 756.1 ± 0.74
[1], 298.15 K, x2 = 0.4252 | – | 765.35 ± 0.78
[1], 298.15 K, x2 = 0.4873 | – | 773.59 ± 0.82
[1], 298.15 K, x2 = 0.5417 | – | 781.58 ± 0.87
[1], 298.15 K, x2 = 0.6031 | – | 791.53 ± 0.92
[1], 298.15 K, x2 = 0.6469 | – | 799.34 ± 0.98
[1], 298.15 K, x2 = 0.6957 | – | 808.8 ± 1
[1], 298.15 K, x2 = 0.7407 | – | 818.3 ± 1.1
[1], 298.15 K, x2 = 0.78 | – | 827.2 ± 1.1
[1], 298.15 K, x2 = 0.8179 | – | 836.5 ± 1.2
[1], 298.15 K, x2 = 0.8516 | – | 845.4 ± 1.3
[1], 298.15 K, x2 = 0.8865 | – | 855.4 ± 1.4
[1], 298.15 K, x2 = 0.9207 | – | 866.1 ± 1.5
[1], 298.15 K, x2 = 0.9604 | – | 879.5 ± 1.6
[1], 318.15 K, x2 = 0 | – | 710.9 ± 0.55
[1], 318.15 K, x2 = 0.0117 | – | 711.52 ± 0.59
[1], 318.15 K, x2 = 0.0758 | – | 715.68 ± 0.62
[1], 318.15 K, x2 = 0.1539 | – | 721.34 ± 0.64
[1], 318.15 K, x2 = 0.2456 | – | 728.94 ± 0.66
[1], 318.15 K, x2 = 0.2848 | – | 732.56 ± 0.69
[1], 318.15 K, x2 = 0.3468 | – | 738.71 ± 0.7
[1], 318.15 K, x2 = 0.3714 | – | 741.31 ± 0.73
[1], 318.15 K, x2 = 0.4391 | – | 749.04 ± 0.76
[1], 318.15 K, x2 = 0.516 | – | 758.96 ± 0.78
[1], 318.15 K, x2 = 0.5314 | – | 761.13 ± 0.84
[1], 318.15 K, x2 = 0.5878 | – | 769.54 ± 0.87
[1], 318.15 K, x2 = 0.6448 | – | 778.92 ± 0.92
[1], 318.15 K, x2 = 0.694 | – | 787.77 ± 0.96
[1], 318.15 K, x2 = 0.7127 | – | 791.38 ± 1
[1], 318.15 K, x2 = 0.7829 | – | 806.2 ± 1.1
[1], 318.15 K, x2 = 0.8204 | – | 815 ± 1.2
[1], 318.15 K, x2 = 0.8538 | – | 823.5 ± 1.2
[1], 318.15 K, x2 = 0.8886 | – | 833 ± 1.3
[1], 318.15 K, x2 = 0.9198 | – | 842.3 ± 1.4
[1], 318.15 K, x2 = 0.9553 | – | 853.8 ± 1.5
[1], 328.15 K, x2 = 0 | – | 703.34 ± 0.55
[1], 328.15 K, x2 = 0.0347 | – | 705.37 ± 0.61
[1], 328.15 K, x2 = 0.1351 | – | 711.99 ± 0.62
[1], 328.15 K, x2 = 0.234 | – | 719.58 ± 0.65
[1], 328.15 K, x2 = 0.3322 | – | 728.47 ± 0.69
[1], 328.15 K, x2 = 0.4166 | – | 737.37 ± 0.73
[1], 328.15 K, x2 = 0.4853 | – | 745.64 ± 0.77
[1], 328.15 K, x2 = 0.5551 | – | 755.09 ± 0.82
[1], 328.15 K, x2 = 0.6186 | – | 764.72 ± 0.87
[1], 328.15 K, x2 = 0.6774 | – | 774.65 ± 0.93
[1], 328.15 K, x2 = 0.7271 | – | 783.92 ± 0.99
[1], 328.15 K, x2 = 0.7735 | – | 793.4 ± 1.1
[1], 328.15 K, x2 = 0.8619 | – | 814.12 ± 1.2
[1], 328.15 K, x2 = 0.9041 | – | 825.66 ± 1.3
[1], 328.15 K, x2 = 0.9511 | – | 840.13 ± 1.5
[2], 291.15 K, x2 = 0.0986 | 0.146 ± 0.00311 | –
[2], 291.15 K, x2 = 0.1909 | 0.246 ± 0.00526 | –
[2], 291.15 K, x2 = 0.2646 | 0.318 ± 0.00669 | –
[2], 291.15 K, x2 = 0.3377 | 0.372 ± 0.00789 | –
[2], 291.15 K, x2 = 0.4032 | 0.404 ± 0.0086 | –
[2], 291.15 K, x2 = 0.4608 | 0.422 ± 0.00908 | –
[2], 291.15 K, x2 = 0.5067 | 0.429 ± 0.00908 | –
[2], 291.15 K, x2 = 0.5523 | 0.433 ± 0.00932 | –
[2], 291.15 K, x2 = 0.5924 | 0.428 ± 0.00908 | –
[2], 291.15 K, x2 = 0.6147 | 0.421 ± 0.00908 | –
[2], 291.15 K, x2 = 0.6541 | 0.409 ± 0.00884 | –
[2], 291.15 K, x2 = 0.7009 | 0.389 ± 0.00837 | –
[2], 291.15 K, x2 = 0.7512 | 0.357 ± 0.00765 | –
[2], 291.15 K, x2 = 0.7956 | 0.317 ± 0.00669 | –
[2], 291.15 K, x2 = 0.8448 | 0.268 ± 0.00574 | –
[2], 291.15 K, x2 = 0.8927 | 0.208 ± 0.00454 | –
[2], 291.15 K, x2 = 0.9375 | 0.14 ± 0.00311 | –
[2], 291.15 K, x2 = 0.9684 | 0.0715 ± 0.00191 | –
[2], 298.15 K, x2 = 0.0884 | 0.119 ± 0.00263 | –
[2], 298.15 K, x2 = 0.177 | 0.216 ± 0.00454 | –
[2], 298.15 K, x2 = 0.2587 | 0.289 ± 0.00621 | –
[2], 298.15 K, x2 = 0.3362 | 0.345 ± 0.00741 | –
[2], 298.15 K, x2 = 0.4005 | 0.377 ± 0.00813 | –
[2], 298.15 K, x2 = 0.4566 | 0.398 ± 0.0086 | –
[2], 298.15 K, x2 = 0.5101 | 0.408 ± 0.00884 | –
[2], 298.15 K, x2 = 0.5578 | 0.408 ± 0.0086 | –
[2], 298.15 K, x2 = 0.5984 | 0.402 ± 0.0086 | –
[2], 298.15 K, x2 = 0.6297 | 0.395 ± 0.00837 | –
[2], 298.15 K, x2 = 0.6727 | 0.381 ± 0.00813 | –
[2], 298.15 K, x2 = 0.7191 | 0.357 ± 0.00765 | –
[2], 298.15 K, x2 = 0.7636 | 0.329 ± 0.00693 | –
[2], 298.15 K, x2 = 0.8098 | 0.289 ± 0.00621 | –
[2], 298.15 K, x2 = 0.8591 | 0.24 ± 0.00526 | –
[2], 298.15 K, x2 = 0.9024 | 0.185 ± 0.00406 | –
[2], 298.15 K, x2 = 0.9385 | 0.124 ± 0.00287 | –
[2], 298.15 K, x2 = 0.9744 | 0.0595 ± 0.00143 | –
[2], 318.15 K, x2 = 0.0892 | 0.136 ± 0.00287 | –
[2], 318.15 K, x2 = 0.172 | 0.226 ± 0.00478 | –
[2], 318.15 K, x2 = 0.2474 | 0.3 ± 0.00645 | –
[2], 318.15 K, x2 = 0.3208 | 0.354 ± 0.00765 | –
[2], 318.15 K, x2 = 0.3848 | 0.388 ± 0.00837 | –
[2], 318.15 K, x2 = 0.4412 | 0.409 ± 0.00884 | –
[2], 318.15 K, x2 = 0.4941 | 0.42 ± 0.00884 | –
[2], 318.15 K, x2 = 0.5409 | 0.421 ± 0.00908 | –
[2], 318.15 K, x2 = 0.5801 | 0.417 ± 0.00884 | –
[2], 318.15 K, x2 = 0.5985 | 0.412 ± 0.00884 | –
[2], 318.15 K, x2 = 0.6567 | 0.391 ± 0.00837 | –
[2], 318.15 K, x2 = 0.6942 | 0.374 ± 0.00789 | –
[2], 318.15 K, x2 = 0.7429 | 0.344 ± 0.00741 | –
[2], 318.15 K, x2 = 0.7959 | 0.303 ± 0.00645 | –
[2], 318.15 K, x2 = 0.8499 | 0.249 ± 0.00526 | –
[2], 318.15 K, x2 = 0.9018 | 0.179 ± 0.00382 | –
[2], 318.15 K, x2 = 0.9554 | 0.0973 ± 0.00215 | –
